Source: patent US20140357512A1, “HISTONE DEACETYLASE (HDAC) BIOMARKERS IN MULTIPLE MYELOMA” (priority 2013, published 2014)

Test system: human myeloma cell line MM.1S
Assay: SILAC acetylated-lysine peptide profiling, HDAC inhibitor vs DMSO (light/heavy ratio)
Format: cell-based
Text: An embodiment of the invention comprises utilizing the SILAC method in order to quantitate changes in protein expression between two or more populations of cells. The SILAC method is a technique based on mass spectrometry that detects differences in protein abundance among samples using non-radioactive isotopic labeling. The SILAC method is known in the art, and described in detail in Ong et al., “Stable Isotope Labeling by Amino Acids in Cell Culture, SILAC, as a Simple and Accurate Approach to Expression Proteomics”, Molecular & Cellular Proteomics, vol. 1, pp. 376-386 (2002), which is incorporated herein by reference in its entirety.
Briefly, the SILAC method involves growing two populations of cells in cell culture. The first population of cells is grown in growth media containing normal amino acids (“normal media”). The second population of cells is grown in media lacking a standard essential amino acid (such as lysine), but is then supplemented with a non-radioactive, isotopically labeled form of that essential amino acid (such as lysine labeled with ^13C atoms, rather than normal ^12C atoms), which is called “heavy media”. When the two populations of cells are each growing in the medium, they incorporate the amino acids into all of their proteins. The growth of cells maintained in the heavy media is no different from that in normal media. All peptides containing the heavy amino acids are heavier than their normal counterparts. The cells from each of the two populations of cells are lysed. The lysates from each of the two cell populations are then combined. The combined cell lysates are then analyzed by mass spectrometry. Pairs of chemically identical peptides of different stable isotope composition can be differentiated in a mass spectrometer due to their difference in mass. The ratio of peak intensities in the mass spectrum for such peptide pairs reflects the abundance ratio for the two proteins.
This example describes SILAC studies that were performed to compare the effects of three different HDAC inhibitors (Compound A, Compound B, and tubastatin A) to a control on a human multiple myeloma cell line. The HDAC inhibitors were also compared amongst themselves to determine differences in their effects.
A human myeloma cell line MM.1S was grown using either ^12C (light) or ^13C (heavy) lysine containing culture medium. The “heavy” cells were treated with DMSO as the control, and the “light” cells were treated with a single HDAC inhibitor at 37° C. for 6 hours. The heavy and light cells were lysed, and the lysates were mixed in 1:1 ratio and digested with the protease trypsin. The acetylated lysine containing peptides (due to the action of the HDAC inhibitor) in the digested peptide pool were captured by a non-specific anti-acetylated lysine antibody cocktail (the antibodies identify both light and heavy acetylated peptides), and subjected to mass spectrometry analysis in order to identify thousands of individual peptides.
Thousands of peptides were identified in pairs (^12C and ^13C) due to their known mass differences. The amino acid sequence and quantitative ratio (Light/Heavy) of a given peptide in two differentially treated cell lysates were then determined and annotated with their possible protein (gene) sources.
As stated above, three HDAC inhibitors (Compound A, Compound B, and Tubastatin A) were used. Thus, the SILAC method was performed three times, with a different HDAC inhibitor compared to a control each time. Accordingly, there are three pairs of quantitative data in the table below, i.e., Compound A:DMSO, Compound B:DMSO, and Tubastatin A:DMSO. A cut-off of 1.30 fold of change (increase or decrease) was then used to determine “changed” or “+” in the table, and any peptides with a fold of change less than 1.3 fold were determined to be “unchanged” or “0” in the table. Those peptides that were not identified were marked as “NA” in the table. […]

## O=C(CCCCCCNC(=O)c1cnc(N(c2ccccc2)c2ccccc2)nc1)NO [Compound A, 2-(diphenylamino)-N-(7-(hydroxyamino)-7-oxoheptyl)pyrimidine-5-carboxamide]
Mitochondrial import inner membrane translocase subunit Tim13 [45], gene TIMM13, inhibitor:DMSO
  light to heavy ratio (L/H ratio) of acetylated peptide MTDK(ac)CFR (SEQ ID NO: 573): 0.42 log 2
Mitochondrial import receptor subunit TOM70 [188], gene TOMM70A, drug:DMSO
  light to heavy ratio (L/H ratio), log 2 scale, acetylated peptide YVK(ac)ALFR (SEQ ID NO: 771): 0.99
Mitochondrial transmembrane GTPase FZO-2 [37], gene MFN1, inhibitor:DMSO
  light to heavy ratio (L/H ratio) of acetylated peptide (ac)AEPVSPLK(ac)HFVLAK (SEQ ID NO: 508): −0.63 log 2
Mitochondrial trifunctional protein beta subunit (Fragment) [100], gene HADHB, inhibitor:DMSO
  light to heavy ratio (L/H ratio) of acetylated peptide LSLLSK(ac)FR (SEQ ID NO: 564): 0.41 log 2
NAD(P) transhydrogenase mitochondrial [70], NNT, drug:DMSO
  light to heavy ratio (L/H ratio) of acetylated peptide EIFQNEK(ac)R (SEQ ID NO: 288): 0.64 log 2
NAD(P) transhydrogenase mitochondrial [403], NNT, drug:DMSO
  light to heavy ratio (L/H ratio) of acetylated peptide AISPDK(ac)DNFYFDVK (SEQ ID NO: 284): 0.61 log 2
NK(ac)WFFQK (SEQ ID NO: 498), 60S ribosomal protein L27 [128], RPL27
  L/H ratio of acetylated peptide: −0.86 log 2
NK(ac)YGDAFIR (SEQ ID NO: 496), U6 snRNA-associated Sm-like protein LSm6 [59], LSM6
  L/H ratio of acetylated peptide: −0.93 log 2
NPM1 [32], log 2 scale, drug vs DMSO
  L/H ratio of acetylated peptide ADKDYHFK(ac)[…] (SEQ ID NO: 61): 0.00
NPM1 [244], log 2 scale, drug vs DMSO
  L/H ratio of acetylated peptide FINYVK(ac)NCFR (SEQ ID NO: 62): 0.00
NUDT21 [23], log 2 scale, drug vs DMSO
  L/H ratio of acetylated peptide GVTQFGNK(ac)[…] (SEQ ID NO: 18): 1.00
Nodal modulator 1 [630], NOMO3, NOMO1, drug:DMSO
  light to heavy ratio (L/H ratio) of acetylated peptide FCLSK(ac)PGVYK (SEQ ID NO: 345): 0.00 log 2
Nucleosome assembly protein 1-like 1 [116], gene NAP1L1, inhibitor:DMSO
  light to heavy ratio (L/H ratio) of acetylated peptide […](ac)R (SEQ ID NO: 532): −0.41 log 2
PABPC4 [104], log 2 scale, drug vs DMSO
  L/H ratio of acetylated peptide SGVGNVFIK(ac)NLDK (SEQ ID NO: 63): 0.00
PDIA3 [104], log 2 scale, drug vs DMSO
  L/H ratio of acetylated peptide […](ac)IFR (SEQ ID NO: 66): 0.00
PDIA3 [214], log 2 scale, drug vs DMSO
  L/H ratio of acetylated peptide PSHLTNK(ac)FEDK (SEQ ID NO: 65): 0.00
PDIA3 [335], log 2 scale, drug vs DMSO
  L/H ratio of acetylated peptide GEK(ac)FVMQEEFSR (SEQ ID NO: 64): 0.00
PGK1 [91], log 2 scale, drug vs DMSO
  L/H ratio of acetylated peptide SLLGK(ac)DVLFLK (SEQ ID NO: 67): 0.00
PLISVYSEK(ac)GESSGK (SEQ ID NO: 247), 60S ribosomal protein L4 [14], RPL4
  light to heavy ratio (L/H ratio) of acetylated peptide, log 2 scale: −0.54
PPIA [82], log 2 scale, drug vs DMSO
  L/H ratio of acetylated peptide SIYGEK(ac)FEDENFILK (SEQ ID NO: 68): 0.00
PPIB [67], log 2 scale, drug vs DMSO
  L/H ratio of acetylated peptide VIFGLFGK(ac)TVPK (SEQ ID NO: 70): 0.00
PPIB [71], log 2 scale, drug vs DMSO
  L/H ratio of acetylated peptide TVPK(ac)[…] (SEQ ID NO: 69): 0.00
PPIB [98], log 2 scale, drug vs DMSO
  L/H ratio of acetylated peptide VIK(ac)[…] (SEQ ID NO: 71): 0.00
PPP1CC [141], log 2 scale, drug vs DMSO
  L/H ratio of acetylated peptide IYGFYDECK(ac)R (SEQ ID NO: 72): 0.00
Peptidyl-prolyl cis-trans isomerase B [165], gene PPIB, inhibitor:DMSO
  light to heavy ratio (L/H ratio) of acetylated peptide TAWLDGK(ac)HVVFGK (SEQ ID NO: 592): 0.44 log 2
Peptidyl-prolyl cis-trans isomerase C [123], PPIC, drug:DMSO
  light to heavy ratio (L/H ratio) of acetylated peptide FPDENFK(ac)LK (SEQ ID NO: 347): 0.00 log 2
Peptidylprolyl isomerase A (Cyclophilin A) (PPIA) pseudogene [141], gene PPIAP26, inhibitor:DMSO
  light to heavy ratio (L/H ratio) of acetylated peptide HVVFGK(ac)VK (SEQ ID NO: 576): 0.42 log 2
Periodic tryptophan protein 2 homolog [279], gene PWP2, inhibitor:DMSO
  light to heavy ratio (L/H ratio) of acetylated peptide LAK(ac)YFFNK (SEQ ID NO: 604): 0.46 log 2
Peroxisomal multifunctional enzyme type 2 [139], gene HSD17B4, inhibitor:DMSO
  light to heavy ratio (L/H ratio) of acetylated peptide AAWEHMK(ac)K (SEQ ID NO: 551): 0.39 log 2
Peroxisomal multifunctional enzyme type 2 [565], gene HSD17B4, inhibitor:DMSO
  light to heavy ratio (L/H ratio) of acetylated peptide FAK(ac)[…] (SEQ ID NO: 557): 0.40 log 2
Poly [ADP-ribose] polymerase 1 [192], gene PARP1, inhibitor:DMSO
  light to heavy ratio (L/H ratio) of acetylated peptide […](ac)EALKK (SEQ ID NO: 619): 0.48 log 2
Poly [ADP-ribose] polymerase 1 [249], PARP1, drug:DMSO
  light to heavy ratio (L/H ratio) of acetylated peptide […](ac)DELKK (SEQ ID NO: 346): 0.00 log 2
Pre-mRNA-processing-splicing factor 8 [2108], gene PRPF8, inhibitor:DMSO
  light to heavy ratio (L/H ratio) of acetylated peptide […](ac)NVLK (SEQ ID NO: 527): −0.44 log 2
Probable ATP-dependent RNA helicase DDX47 [169], gene DDX47, inhibitor:DMSO
  light to heavy ratio (L/H ratio) of acetylated peptide ALK(ac)YLVMDEADR (SEQ ID NO: 513): −0.58 log 2
Prohibitin [4], PHB, drug:DMSO
  light to heavy ratio (L/H ratio) of acetylated peptide (ac)AAK(ac)VFESIGK (SEQ ID NO: 277): 0.54 log 2
